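GI50 is the concentration that inhibits growth by half. TGI marks complete inhibition of growth.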
Tests used:
Experiment in all cases: NCI anticancer screen, dose series, 384-well format
[1] = tested on: 786-0 renal
[2] = tested on: A498 renal
[3] = tested on: A549 NSCLC
[4] = tested on: ACHN renal
[5] = tested on: BT-549 breast
[6] = tested on: CAKI-1 renal
[7] = tested on: COLO 205 colon
[8] = tested on: DU-145 prostate
[9] = tested on: EKVX NSCLC
[10] = tested on: HCT-15 colon
[11] = tested on: HL-60(TB) leukemia
[12] = tested on: HOP-62 NSCLC
[13] = tested on: HOP-92 NSCLC
[14] = tested on: HS 578T breast
[15] = tested on: HT29 colon
[16] = tested on: IGROV1 ovarian
[17] = tested on: K-562 leukemia
[18] = tested on: KM12 colon
[19] = tested on: M14 melanoma
[20] = tested on: MALME-3M melanoma
[21] = tested on: MCF7 breast
[22] = tested on: MDA-MB-231 breast
[23] = tested on: MDA-MB-435 melanoma
[24] = tested on: MDA-MB-468 breast
[25] = tested on: MOLT-4 leukemia
[26] = tested on: NCI-H226 lung
[27] = tested on: NCI-H23 lung
[28] = tested on: NCI-H322M lung
[29] = tested on: NCI-H460 NSCLC
[30] = tested on: NCI-H522 lung
[31] = tested on: OVCAR-3 ovarian
[32] = tested on: OVCAR-4 ovarian
[33] = tested on: OVCAR-5 ovarian
[34] = tested on: OVCAR-8 ovarian
[35] = tested on: PC-3 prostate
[36] = tested on: RXF 393 renal
[37] = tested on: SF-268 CNS
[38] = tested on: SF-295 CNS
[39] = tested on: SF-539 CNS
[40] = tested on: SK-MEL-2 melanoma
[41] = tested on: SK-MEL-28 melanoma
[42] = tested on: SK-MEL-5 melanoma
[43] = tested on: SK-OV-3 ovarian
[44] = tested on: SN12C renal
[45] = tested on: SNB-19 CNS
[46] = tested on: SNB-75 CNS
[47] = tested on: SR leukemia
[48] = tested on: SW-620 colon
[49] = tested on: T-47D breast
[50] = tested on: TK-10 renal
[51] = tested on: U251 glioblastoma
[52] = tested on: UACC-257 melanoma
[53] = tested on: UACC-62 melanoma
[54] = tested on: UO-31 renal

Cc1nc(Nc2n[nH]c3c2CN(C(=O)N[C@H](CN(C)C)c2ccccc2)C3(C)C)c2sccc2n1
GI50 [1]: 58.1 nM | TGI [1]: 1920 nM | GI50 [2]: 30.1 nM | TGI [2]: 2380 nM | GI50 [3]: 39.6 nM | TGI [3]: 61700 nM | GI50 [4]: 35.6 nM | TGI [4]: 3060 nM | GI50 [5]: < 10 nM | TGI [5]: 109 nM | GI50 [6]: 52.2 nM | TGI [6]: 2790 nM | GI50 [7]: < 10 nM | TGI [7]: 193 nM | GI50 [8]: < 10 nM | TGI [8]: 10200 nM | GI50 [9]: 195 nM | TGI [9]: 2140 nM | GI50 [10]: 449 nM | TGI [10]: 13600 nM | GI50 [11]: < 10 nM | TGI [11]: 117 nM | GI50 [12]: < 10 nM | TGI [12]: 113 nM | GI50 [13]: 131 nM | TGI [13]: 911 nM | GI50 [14]: 93.6 nM | TGI [14]: 763 nM | GI50 [15]: 10.8 nM | TGI [15]: 1750 nM | GI50 [16]: < 10 nM | TGI [16]: 449 nM | GI50 [17]: < 10 nM | TGI [17]: 3390 nM | GI50 [18]: < 10 nM | TGI [18]: 1060 nM | GI50 [19]: 18.8 nM | TGI [19]: 1500 nM | GI50 [20]: < 10 nM | TGI [20]: 1490 nM | GI50 [21]: < 10 nM | TGI [21]: 193 nM | GI50 [22]: 102 nM | TGI [22]: 1240 nM | GI50 [23]: < 10 nM | TGI [23]: 1670 nM | GI50 [24]: < 10 nM | TGI [24]: 431 nM | GI50 [25]: < 10 nM | TGI [25]: 122 nM | GI50 [26]: 88.1 nM | TGI [26]: 1590 nM | GI50 [27]: < 10 nM | TGI [27]: 214 nM | GI50 [28]: 174 nM | TGI [28]: 1580 nM | GI50 [29]: < 10 nM | TGI [29]: 1300 nM | GI50 [30]: < 10 nM | TGI [30]: 214 nM | GI50 [31]: < 10 nM | TGI [31]: 152 nM | GI50 [32]: 40.6 nM | TGI [32]: 3790 nM | GI50 [33]: 61.3 nM | TGI [33]: 11200 nM | GI50 [34]: 33.3 nM | TGI [34]: 1470 nM | GI50 [35]: < 10 nM | TGI [35]: 642 nM | GI50 [36]: 144 nM | TGI [36]: 960 nM | GI50 [37]: 118 nM | TGI [37]: 1350 nM | GI50 [38]: 57.1 nM | TGI [38]: 2290 nM | GI50 [39]: < 10 nM | TGI [39]: 1020 nM | GI50 [40]: < 10 nM | TGI [40]: 207 nM | GI50 [41]: < 10 nM | TGI [41]: 1260 nM | GI50 [42]: < 10 nM | TGI [42]: 827 nM | GI50 [43]: 178 nM | TGI [43]: 8090 nM | GI50 [44]: < 10 nM | TGI [44]: 1150 nM | GI50 [45]: 382 nM | TGI [45]: 12500 nM | GI50 [46]: 274 nM | TGI [46]: 1410 nM | GI50 [47]: < 10 nM | GI50 [48]: < 10 nM | TGI [48]: 2210 nM | GI50 [49]: 576 nM | TGI [49]: 3840 nM | GI50 [50]: 179 nM | TGI [50]: 11000 nM | GI50 [51]: < 10 nM | TGI [51]: 2660 nM | GI50 [52]: 19 nM | TGI [52]: 632 nM | GI50 [53]: < 10 nM | TGI [53]: 19.4 nM | GI50 [54]: 1610 nM | TGI [54]: 14400 nM

Source: PubChem BioAssay (NCI)
